The assay addresses T1, human topoisomerase I (Homo sapiens, UniProt P11387).
T1 construct: purchased TopoGen, Buena Vista, CO, USA
T1 sequence (P11387 1-765): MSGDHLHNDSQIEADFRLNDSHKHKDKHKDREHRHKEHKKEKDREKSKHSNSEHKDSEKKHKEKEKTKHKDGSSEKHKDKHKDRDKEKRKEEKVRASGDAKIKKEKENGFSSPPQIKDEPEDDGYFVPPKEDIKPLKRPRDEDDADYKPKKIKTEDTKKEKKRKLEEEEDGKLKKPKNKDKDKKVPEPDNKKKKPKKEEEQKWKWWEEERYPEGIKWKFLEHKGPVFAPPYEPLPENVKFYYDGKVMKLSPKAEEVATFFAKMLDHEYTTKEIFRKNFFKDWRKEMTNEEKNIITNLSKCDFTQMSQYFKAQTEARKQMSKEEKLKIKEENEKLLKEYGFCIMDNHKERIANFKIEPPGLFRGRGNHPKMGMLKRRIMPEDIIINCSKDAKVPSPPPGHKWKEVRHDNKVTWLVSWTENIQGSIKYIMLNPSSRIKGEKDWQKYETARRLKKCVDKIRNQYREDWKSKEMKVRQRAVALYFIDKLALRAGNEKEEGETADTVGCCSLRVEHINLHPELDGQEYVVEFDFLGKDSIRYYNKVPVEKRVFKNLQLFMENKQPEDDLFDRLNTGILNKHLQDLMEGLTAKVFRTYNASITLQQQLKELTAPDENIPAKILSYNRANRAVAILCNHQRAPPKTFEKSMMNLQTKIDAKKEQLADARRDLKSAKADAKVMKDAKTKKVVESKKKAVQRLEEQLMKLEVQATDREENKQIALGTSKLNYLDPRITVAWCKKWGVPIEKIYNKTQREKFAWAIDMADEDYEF
Put plainly: Topoisomerase I drug screening (plasmid based), gel electrophoresis. As to conditions: scDNA + topo1; tested compounds 10-20 µM, camptothecin 100 µM. It counts as biochemical.

SMILES strings stand for the structures.

Method: The test procedure was carried out according to the manufacturer′s instructions (Topoisomerase I Drug Screening Kit(plasmid based) TopoGen/Topoisomerase II Drug Screening Kit (plasmid based) (TopoGen, Buena Vista, CO, USA). A reaction mixture with appropriate concentrations of water and buffer and 1–0.5 mL of DNA (plasmid) was prepared. Then, the tested compounds dissolved in DMSO were added. A solvent control test was also performed. Finally, an enzyme in the indicated amount was added to the mixture. The whole was incubated at 37 °C for 30 min. Then, the reaction was stopped by adding 2 μL of detergent-SDS (sodium dodecyl sulfate). Proteinase K solution (50 μg/mL) was then added and incubated at 37 °C for 15 min. After that time, a loading buffer (bromophenol blue and glycerol) was added to the samples and then applied to a 1% agarose gel. Electrophoresis was carried out in TAE (Tris Acetate-EDTA) buffer, which was obtained by mixing 40 mM Tris Acetate, 1 mM EDTA, and diluting with water. It was carried out for 4–5 h at 2 V/cm. For the Topo I assay, two types of gel were prepared: non-EB (Figure 8A) and EB gel (Figure 8B). Non-EB gels were stained with EB (0.5 ug/mL) for 15–30 min and then destained in water or buffer for 15 min prior to photodocumentation. […]

Turning to `CC[C@@]1(O)C(=O)OCc2c1cc1n(c2=O)Cc2cc3ccccc3nc2-1` [camptothecin], the “inhibition of topoisomerase I / DNA band pattern” value is “presence of open circular DNA”.

(Values after paper PMC8306828 (International Journal of Molecular Sciences, 2021).)
